Data taken from the supplement of paper PMC10883282.
± gives the standard deviation of the averaged measurements.

Legend:
Assay in all cases: relative viability vs DMSO control (72 h) (fraction); higher = more viable cells
[1] = tested on: SW1353
How it was run: (§1)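 ATPLite readings, expressed as percent growth and averaged over up to triplicate wells, provided relative viability. Before reading, sarcoma cell lines seeded in 384-well plates to reach 80–90% confluence received 2.5 µl of serially diluted compound after 24 h, from source plates of 10 mM to 0.0002 mM. Plates were held 72 h at 37 °C, 5% CO2, with 0.1% DMSO as vehicle and a 5 µM positive control. The data were rescaled to 1 for full and 0 for none.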

[2] = tested on: SW982
How it was run: as §1

[3] = tested on: HT1080
How it was run: as §1

[4] = tested on: RD-ES
How it was run: as §1

[5] = tested on: KHOS-240S
How it was run: as §1

CC1(COc2ccc3c(c2)ncn3-c2ccc3cccc(N4CCC(N)CC4)c3n2)COC1 [Crenolanib]
relative viability
Conditions | [1] | [2] | [3] | [4] | [5]
0.00017 µM | 0.968 ± 0.022 | 0.937 ± 0.021 | 1.01 ± 0.028 | 0.949 ± 0.026 | 0.97 ± 0.038
0.00051 µM | 0.959 ± 0.029 | 0.9575 ± 0.0066 | 1.03 ± 0.016 | 0.958 ± 0.043 | 0.957 ± 0.057
0.00152 µM | 0.938 ± 0.062 | 0.947 ± 0.037 | 1.04 ± 0.012 | 0.957 ± 0.047 | 1.01 ± 0.015
0.00457 µM | 0.97 ± 0.014 | 0.974 ± 0.034 | 1.03 ± 0.028 | 0.975 ± 0.034 | 1.02 ± 0.024
0.01372 µM | 0.949 ± 0.031 | 0.965 ± 0.035 | 1.02 ± 0.018 | 0.958 ± 0.044 | 1.01 ± 0.043
0.04115 µM | 0.917 ± 0.026 | 0.971 ± 0.035 | 1.02 ± 0.043 | 0.969 ± 0.029 | 1.023 ± 0.0081
0.1235 µM | 0.92 ± 0.013 | 0.969 ± 0.018 | 1.02 ± 0.027 | 0.97 ± 0.035 | 0.986 ± 0.048
0.3704 µM | 0.84 ± 0.035 | 0.952 ± 0.024 | 1.05 ± 0.017 | 0.994 ± 0.018 | 0.963 ± 0.023
1.111 µM | 0.813 ± 0.017 | 0.679 ± 0.046 | 1.04 ± 0.019 | 0.915 ± 0.025 | 0.844 ± 0.019
3.333 µM | 0.683 ± 0.018 | 0.352 ± 0.075 | 0.811 ± 0.028 | 0.359 ± 0.0094 | 0.476 ± 0.023
10 µM | 0.009 ± 0.00096 | 0.0115 ± 0.0025 | 0.0545 ± 0.022 | 0.255 ± 0.031 | 0.134 ± 0.0096

Cc1cc2cc(Oc3ccnc(Nc4cccc(CS(=O)(=O)NCCN(C)C)c4)n3)ccc2[nH]1 [Sulfatinib]
relative viability
Conditions | [1] | [2] | [3] | [4] | [5]
0.00017 µM | 0.936 ± 0.066 | 1.04 ± 0.038 | 1.023 ± 0.005 | 1.02 ± 0.044 | 1.02 ± 0.035
0.00051 µM | 0.911 ± 0.042 | 1.04 ± 0.03 | 0.983 ± 0.044 | 0.998 ± 0.035 | 1.02 ± 0.021
0.00152 µM | 0.925 ± 0.039 | 1.05 ± 0.026 | 0.997 ± 0.067 | 1.01 ± 0.02 | 1.02 ± 0.03
0.00457 µM | 0.941 ± 0.012 | 1.06 ± 0.043 | 1.03 ± 0.064 | 0.996 ± 0.024 | 1.03 ± 0.039
0.01372 µM | 0.975 ± 0.042 | 1.04 ± 0.017 | 1.03 ± 0.042 | 1.023 ± 0.0082 | 1.05 ± 0.021
0.04115 µM | 0.922 ± 0.014 | 1.03 ± 0.012 | 1.03 ± 0.044 | 1 ± 0.02 | 1.02 ± 0.047
0.1235 µM | 0.964 ± 0.022 | 1.06 ± 0.049 | 1.01 ± 0.038 | 1 ± 0.031 | 1.012 ± 0.004
0.3704 µM | 0.931 ± 0.021 | 1.02 ± 0.059 | 1.044 ± 0.0027 | 1.01 ± 0.023 | 0.961 ± 0.0099
1.111 µM | 0.906 ± 0.027 | 0.971 ± 0.025 | 0.969 ± 0.062 | 0.992 ± 0.022 | 0.936 ± 0.018
3.333 µM | 0.845 ± 0.02 | 0.719 ± 0.018 | 1.05 ± 0.017 | 0.87 ± 0.032 | 0.741 ± 0.036
10 µM | 0.565 ± 0.023 | 0.226 ± 0.0099 | 0.878 ± 0.032 | 0.579 ± 0.024 | 0.382 ± 0.025

COCCNc1cc(NC(=O)N2CCCc3cc(CN4CCN(C)CC4=O)c(C=O)nc32)ncc1C#N [Roblitinib]
relative viability
Conditions | [1] | [2] | [3] | [4] | [5]
0.00017 µM | 0.959 ± 0.041 | 1.013 ± 0.0057 | 1 ± 0.018 | 0.972 ± 0.016 | 1.04 ± 0.029
0.00051 µM | 0.935 ± 0.031 | 0.995 ± 0.019 | 1.04 ± 0.014 | 0.981 ± 0.023 | 1.04 ± 0.032
0.00152 µM | 0.899 ± 0.032 | 0.991 ± 0.02 | 0.971 ± 0.013 | 0.986 ± 0.033 | 1.026 ± 0.0035
0.00457 µM | 0.95 ± 0.067 | 1.03 ± 0.04 | 0.9973 ± 0.0052 | 0.965 ± 0.03 | 1.04 ± 0.021
0.01372 µM | 0.953 ± 0.032 | 0.992 ± 0.016 | 0.951 ± 0.034 | 0.968 ± 0.025 | 1.02 ± 0.019
0.04115 µM | 0.953 ± 0.029 | 1.03 ± 0.051 | 1.04 ± 0.04 | 0.9621 ± 0.0066 | 1.03 ± 0.0099
0.1235 µM | 0.942 ± 0.036 | 0.992 ± 0.018 | 1.05 ± 0.072 | 0.958 ± 0.027 | 1.035 ± 0.0076
0.3704 µM | 0.958 ± 0.033 | 1.03 ± 0.04 | 1.07 ± 0.033 | 0.952 ± 0.03 | 1.03 ± 0.028
1.111 µM | 0.922 ± 0.027 | 1.03 ± 0.023 | 0.952 ± 0.022 | 0.936 ± 0.019 | 1 ± 0.017
3.333 µM | 0.949 ± 0.014 | 1.01 ± 0.065 | 1.029 ± 0.0021 | 0.884 ± 0.037 | 0.963 ± 0.034
10 µM | 0.961 ± 0.014 | 0.9846 ± 0.0093 | 0.997 ± 0.052 | 0.867 ± 0.059 | 0.967 ± 0.055

CN1CC[C@@H](NC(=O)Nc2ccc(C#N)cc2)C[C@@H]1c1nc2ccccc2[nH]1 [Glasdegib]
relative viability
Conditions | [1] | [2] | [3] | [4] | [5]
0.00017 µM | 1.1 ± 0.013 | 0.988 ± 0.014 | 1.07 ± 0.034 | 0.9823 ± 0.0076 | 1.04 ± 0.028
0.00051 µM | 1.1 ± 0.015 | 0.993 ± 0.022 | 1.091 ± 0.003 | 0.963 ± 0.028 | 1.061 ± 0.0035
0.00152 µM | 1.08 ± 0.037 | 1 ± 0.017 | 1.112 ± 0.0024 | 0.9569 ± 0.0078 | 1.08 ± 0.015
0.00457 µM | 1.1 ± 0.031 | 1.03 ± 0.024 | 1.09 ± 0.038 | 0.968 ± 0.028 | 1.08 ± 0.042
0.01372 µM | 1.09 ± 0.038 | 1 ± 0.01 | 1.09 ± 0.026 | 0.96 ± 0.025 | 1.06 ± 0.05
0.04115 µM | 1.07 ± 0.015 | 0.971 ± 0.07 | 1.112 ± 0.0081 | 0.923 ± 0.013 | 1.06 ± 0.018
0.1235 µM | 1.07 ± 0.018 | 1.004 ± 0.0054 | 1.1 ± 0.018 | 0.924 ± 0.017 | 1.05 ± 0.019
0.3704 µM | 1.07 ± 0.028 | 0.985 ± 0.025 | 1.087 ± 0.0067 | 0.926 ± 0.025 | 1.065 ± 0.0064
1.111 µM | 1.1 ± 0.025 | 1.02 ± 0.022 | 1.07 ± 0.041 | 0.924 ± 0.046 | 1.05 ± 0.015
3.333 µM | 1.09 ± 0.029 | 1.02 ± 0.015 | 1.054 ± 0.0082 | 0.934 ± 0.059 | 1.05 ± 0.017
10 µM | 1.04 ± 0.024 | 0.992 ± 0.04 | 1.01 ± 0.053 | 0.891 ± 0.059 | 1.03 ± 0.043
